{
  "source": "patent US20200308170A1",
  "about": "“KRAS G12C INHIBITORS” (Mirati Therapeutics, Inc., priority 2017, published 2020)",
  "data": [
    {"target": "KRas G12C (Homo sapiens, UniProt P01116, G12C)", "sequence (P01116 1-188 isoform P01116-2 G12C)": "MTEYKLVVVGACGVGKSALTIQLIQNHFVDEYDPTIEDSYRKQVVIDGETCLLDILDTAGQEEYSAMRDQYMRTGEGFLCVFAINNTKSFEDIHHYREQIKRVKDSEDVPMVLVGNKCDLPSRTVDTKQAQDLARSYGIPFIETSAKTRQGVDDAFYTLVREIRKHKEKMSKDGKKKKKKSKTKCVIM", "assay": "Inhibition of KRas G12C in NCI-H358 cells measured by phosphorylated ERK (Phospho-ERK)", "format": "cell-based", "conditions": "3 hours, 4 parameter fit, read-out: IC50 (pERK(Thr202/Tyr204) signal normalized with GAPDH)", "protocol": "Cells were plated in poly-D-Lysine coated 96-well plates at a concentration of 50,000 cells/well and allowed to attach for 8-12 hours. Diluted compounds were then added at a final concentration of 0.5% DMSO. After 3 hours, the medium was removed, 150 μL of 4% formaldehyde was added and the plates were incubated for 20 minutes. The plates were washed with PBS, and permeabilized using 150 μL of ice cold 100% methanol for 10 minutes. Non-specific antibody binding to the plates was blocked using 100 μL Licor Blocking Buffer (Li-Cor Biotechnology, Lincoln Nebr.) for 1 hour at room temperature. Positive control samples and samples lacking cells were parallel processed with test samples as standards.\nThe amount Phospho-ERK was determined using an antibody specific for the phosphorylated form of ERK and compared to the amount of GAPDH. […] The plates were incubated for 2 hours at room temperature. The plates were washed with PBS+0.05% Tween 20.\nSecondary antibodies used to visualize primary antibodies were added as follows: Anti-rabbit-680 diluted 1:1000 and Anti-mouse-800 diluted 1:1000 in Licor Block+0.05% Tween 20 and incubated for 1 hour at room temperature. The plates were washed with PBS+0.05% Tween 20. A 100 μL aliquot of PBS was added to each well and the plates were read on a LICOR AERIUS plate reader.\nThe pERK(Thr202/Tyr204) signal was normalized with the GAPDH signal and percent of DMSO control values were calculated. IC50 values were generated using a 4 parameter fit of the dose response curve.", "units": {"IC50": "nM"}, "values": [
      {"smiles": "C=C(F)C(=O)N1CCN(c2nc(OCCc3nccn3C)nc3c2CCN(c2cccc4ccc(F)c(Cl)c24)C3)C[C@@H]1CC#N", "note": "[Example 191]", "IC50": "0.1 to 1000"},
      {"smiles": "C=C(F)C(=O)N1CCN(c2nc(OCC(C)C(F)F)nc3c2CCN(c2cccc4ccc(F)c(Cl)c24)C3)C[C@@H]1CC#N", "note": "(stereo partly shown) [Example 192]", "IC50": "1000 to 10000"},
      {"smiles": "C=C(F)C(=O)N1CCN(c2nc(OC3CCN(C(C)C)C3)nc3c2CCN(c2cccc4ccc(F)c(Cl)c24)C3)C[C@@H]1CC#N", "note": "(stereo partly shown) [Example 150]", "IC50": "0.1 to 1000"},
      {"smiles": "C=C(F)C(=O)N1CCN(c2nc(OCC34CCCN3CCC4)nc3c2CCN(c2cccc4cccc(Br)c24)C3)C[C@@H]1CC#N", "note": "[Example 143]", "IC50": "0.1 to 1000"},
      {"smiles": "C=C(F)C(=O)N1CCN(c2nc(OC[C@@H]3CCCN3C(C)C)nc3c2CCN(c2cccc4ccc(F)c(Cl)c24)C3)C[C@@H]1CC#N", "note": "[Example 147, 2-((S)-4-(7-(8-chloro-7-fluoronaphthalen-1-yl)-2-(((S)-1-isopropylpyrrolidin-2-yl)methoxy)-5,6,7,8-tetrahydropyrido[3,4-d]pyrimidin-4-yl)-1-(2-fluoroacryloyl)piperazin-2-yl)acetonitrile]", "IC50": "0.1 to 1000"},
      {"smiles": "C=C(F)C(=O)N1CCN(c2nc(OCC3N(C)CC3(C)C)nc3c2CCN(c2cccc4ccc(F)c(Cl)c24)C3)C[C@@H]1CC#N", "note": "(stereo partly shown) [Example 187]", "IC50": "0.1 to 1000"},
      {"smiles": "C=C(F)C(=O)N1CCN(c2nc(OC[C@@H]3CC(F)(F)CN3)nc3c2CCN(c2cccc4ccc(F)c(Cl)c24)C3)C[C@@H]1CC#N", "note": "[Example 208, 2-((S)-4-(7-(8-chloro-7-fluoronaphthalen-1-yl)-2-(((S)-4,4-difluoropyrrolidin-2-yl)methoxy)-5,6,7,8-tetrahydropyrido[3,4-d]pyrimidin-4-yl)-1-(2-fluoroacryloyl)piperazin-2-yl)acetonitrile]", "IC50": "0.1 to 1000"},
      {"smiles": "C=C(F)C(=O)N1CCN(c2nc(OCC3CCN3C(C)(C)C)nc3c2CCN(c2cccc4cccc(C)c24)C3)C[C@@H]1CC#N", "note": "(stereo partly drawn) [Example 74, 2-((2S)-4-(2-((1-(tert-butyl)azetidin-2-yl)methoxy)-7-(8-methylnaphthalen-1-yl)-5,6,7,8-tetrahydropyrido[3,4-d]pyrimidin-4-yl)-1-(2-fluoroacryloyl)piperazin-2-yl)acetonitrile]", "IC50": "0.1 to 1000"},
      {"smiles": "C=C(F)C(=O)N1CCN(c2nc(O[C@@H]3CCCC[C@H]3N(C)C)nc3c2CCN(c2cccc4ccc(F)c(Cl)c24)C3)C[C@@H]1CC#N", "note": "[Example 182]", "IC50": "1000 to 10000"},
      {"smiles": "C=C(F)C(=O)N1CCN(c2nc(OCC34CCC(CC3)CN4C)nc3c2CCN(c2cccc4ccc(F)c(Cl)c24)C3)C[C@@H]1CC#N", "note": "[Example 166]", "IC50": "0.1 to 1000"},
      {"smiles": "C=C(F)C(=O)N1CCN(c2nc(OCC3COC3)nc3c2CCN(c2cccc4ccc(F)c(Cl)c24)C3)C[C@@H]1CC#N", "note": "[Example 197]", "IC50": "0.1 to 1000"},
      {"smiles": "C=C(F)C(=O)N1CCN(c2nc(OCCN3C[C@@H]4CC3CO4)nc3c2CCN(c2cccc4ccc(F)c(Cl)c24)C3)C[C@@H]1CC#N", "note": "[Example 193]", "IC50": "0.1 to 1000"},
      {"smiles": "C=C(F)C(=O)N1CCN(c2nc(OCC34CCCN3C[C@H](F)C4)nc3c2CCN(c2cccc4ccc(F)c(Cl)c24)C3)C[C@@H]1CC#N", "note": "(stereo partly shown) [Example 156]", "IC50": "0.1 to 1000"},
      {"smiles": "C=C(F)C(=O)N1CCN(c2nc(OCC34CCCN3CCC4)nc3c2CCN(c2cccc4ccc(F)c(Cl)c24)C3)C[C@@H]1CC#N", "note": "[Example 138, (S)-2-(4-(7-(8-chloro-7-fluoronaphthalen-1-yl)-2-((tetrahydro-1H-pyrrolizin-7a(5H)-yl)methoxy)-5,6,7,8-tetrahydropyrido[3,4-d]pyrimidin-4-yl)-1-(2-fluoroacryloyl)piperazin-2-yl)acetonitrile]", "IC50": "0.1 to 1000"},
      {"smiles": "C=C(F)C(=O)N1CCN(c2nc(OC3CN4CCC3CC4)nc3c2CCN(c2cccc4ccc(F)c(Cl)c24)C3)C[C@@H]1CC#N", "note": "(stereo partly shown) [Example 154]", "IC50": "1000 to 10000"},
      {"smiles": "C=C(F)C(=O)N1CCN(c2nc(OCC34COCN3COC4)nc3c2CCN(c2cccc4ccc(F)c(Cl)c24)C3)C[C@@H]1CC#N", "note": "[Example 155]", "IC50": "0.1 to 1000"},
      {"smiles": "C=C(F)C(=O)N1CCN(c2nc(OC[C@@H]3COCCN3Cc3ccccc3)nc3c2CCN(c2cccc4ccc(F)c(Cl)c24)C3)C[C@@H]1CC#N", "note": "[Example 167]", "IC50": "0.1 to 1000"},
      {"smiles": "N#CC[C@H]1CN(c2nc(OCC34CCCN3CCC4)nc3c2CCN(c2cccc4ccc(F)c(Cl)c24)C3)CCN1C(=O)/C(F)=C/CF", "note": "[Example 207, (S, Z)-2-(4-(7-(8-chloro-7-fluoronaphthalen-1-yl)-2-((tetrahydro-1H-pyrrolizin-7a(5H)-yl)methoxy)-5,6,7,8-tetrahydropyrido[3,4-d]pyrimidin-4-yl)-1-(2,4-difluorobut-2-enoyl)piperazin-2-yl)acetonitrile]", "IC50": "0.1 to 1000"},
      {"smiles": "C=C(F)C(=O)N1CCN(c2nc(OC[C@@H]3[C@@H]4CC[C@@H](C4)N3C)nc3c2CCN(c2cccc4ccc(F)c(Cl)c24)C3)C[C@@H]1CC#N", "note": "[Example 190]", "IC50": "0.1 to 1000"},
      {"smiles": "C=C(F)C(=O)N1CCN(c2nc(OCC3CCN3CC)nc3c2CCN(c2cccc4ccc(F)c(Cl)c24)C3)C[C@@H]1CC#N", "note": "(stereo partly shown) [Example 179]", "IC50": "0.1 to 1000"},
      {"smiles": "C=C(F)C(=O)N1CCN(c2nc(OC3CCCN(C(C)C)C3)nc3c2CCN(c2cccc4ccc(F)c(Cl)c24)C3)C[C@@H]1CC#N", "note": "(stereo partly shown) [Example 152]", "IC50": "1000 to 10000"},
      {"smiles": "C=C(F)C(=O)N1CCN(c2nc(OC[C@@H]3C[C@@H](OC)CN3C(C)C)nc3c2CCN(c2cccc4ccc(F)c(Cl)c24)C3)C[C@@H]1CC#N", "note": "[Example 181]", "IC50": "0.1 to 1000"},
      {"smiles": "C=C(F)C(=O)N1CCN(c2nc(OCC34CC(N(C)C)(C3)C4)nc3c2CCN(c2cccc4ccc(F)c(Cl)c24)C3)C[C@@H]1CC#N", "note": "[Example 188]", "IC50": "0.1 to 1000"},
      {"smiles": "C=C(F)C(=O)N1CCN(c2nc(OCCN(CC)CC)nc3c2CCN(c2cccc4ccc(F)c(Cl)c24)C3)C[C@@H]1CC#N", "note": "[Example 159]", "IC50": "0.1 to 1000"},
      {"smiles": "C=C(F)C(=O)N1CCN(c2nc(OC[C@@H]3CCCN3C3CCC3)nc3c2CCN(c2cccc4ccc(F)c(Cl)c24)C3)C[C@@H]1CC#N", "note": "[Example 196]", "IC50": "0.1 to 1000"},
      {"smiles": "COC/C=C(\\F)C(=O)N1CCN(c2nc(OCC34CCCN3CCC4)nc3c2CCN(c2cccc4ccc(F)c(Cl)c24)C3)C[C@@H]1CC#N", "note": "[Example 206, (S, Z)-2-(4-(7-(8-chloro-7-fluoronaphthalen-1-yl)-2-((tetrahydro-1H-pyrrolizin-7a(5H)-yl)methoxy)-5,6,7,8-tetrahydropyrido[3,4-d]pyrimidin-4-yl)-1-(2-fluoro-4-methoxybut-2-enoyl)piperazin-2-yl)acetonitrile]", "IC50": "0.1 to 1000"},
      {"smiles": "C=C(F)C(=O)N1CCN(c2nc(OC[C@@H]3CCCN3C)nc3c2CCN(c2cccc4ccc(Cl)c(Cl)c24)C3)C[C@@H]1CC#N", "note": "[Example 137]", "IC50": "1000 to 10000"},
      {"smiles": "C=C(F)C(=O)N1CCN(c2nc(OC3CCN(C4CCOCC4)CC3)nc3c2CCN(c2cccc4cccc(Cl)c24)C3)C[C@@H]1CC#N", "note": "[Example 130, (S)-2-(4-(7-(8-chloronaphthalen-1-yl)-2-((1-(tetrahydro-2H-pyran-4-yl)piperidin-4-yl)oxy)-5,6,7,8-tetrahydropyrido[3,4-d]pyrimidin-4-yl)-1-(2-fluoroacryloyl)piperazin-2-yl)acetonitrile]", "IC50": "1000 to 10000"},
      {"smiles": "C=C(F)C(=O)N1CCN(c2nc(OCC34CCCN3CC(F)(F)C4)nc3c2CCN(c2cccc4ccc(F)c(Cl)c24)C3)C[C@@H]1CC#N", "note": "(stereo partly shown) [Example 174]", "IC50": "0.1 to 1000"},
      {"smiles": "C=C(F)C(=O)N1CCN(c2nc(OCC34CCCN3CCC4)nc3c2CCN(c2cccc(C)c2C(F)(F)F)C3)C[C@@H]1CC#N", "note": "[Example 144]", "IC50": "0.1 to 1000"},
      {"smiles": "C=C(F)C(=O)N1CCN(c2nc(OCC3CCOC3)nc3c2CCN(c2cccc4ccc(F)c(Cl)c24)C3)C[C@@H]1CC#N", "note": "(stereo partly shown) [Example 189]", "IC50": "1000 to 10000"}
    ]}
  ]
}
